{"source": "paper PMC10382584", "about": "“Macrocyclization of linear molecules by deep learning to facilitate macrocyclic drug candidates discovery” (Nature Communications, 2023);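 note: KINOMEscan kinase panel binding assay, signal normalized between DMSO as 100% and a positive control compound as 0%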", "assay_in_all_cases": "biochemical", "set-up_in_all_cases": "DiscoveRx KINOMEscan competition binding, percent of DMSO control signal at 100 nM", "conditions_in_all_cases": "read-out: Fig. 4a / Percent Control / Compound 1; percent of DMSO control, competition binding", "key": {"[1]": {"biological_target": "T1, PFTAIRE2 (Homo sapiens, UniProt Q96Q40)", "T1 construct": "gene CDK15"}, "[2]": {"biological_target": "T2, JAK1(JH1domain-catalytic) (Homo sapiens, UniProt P23458)", "T2 construct": "JH1domain-catalytic"}, "[3]": {"biological_target": "MYLK4 (Homo sapiens, UniProt Q86YV6)", "sequence (Q86YV6 whole entry)": "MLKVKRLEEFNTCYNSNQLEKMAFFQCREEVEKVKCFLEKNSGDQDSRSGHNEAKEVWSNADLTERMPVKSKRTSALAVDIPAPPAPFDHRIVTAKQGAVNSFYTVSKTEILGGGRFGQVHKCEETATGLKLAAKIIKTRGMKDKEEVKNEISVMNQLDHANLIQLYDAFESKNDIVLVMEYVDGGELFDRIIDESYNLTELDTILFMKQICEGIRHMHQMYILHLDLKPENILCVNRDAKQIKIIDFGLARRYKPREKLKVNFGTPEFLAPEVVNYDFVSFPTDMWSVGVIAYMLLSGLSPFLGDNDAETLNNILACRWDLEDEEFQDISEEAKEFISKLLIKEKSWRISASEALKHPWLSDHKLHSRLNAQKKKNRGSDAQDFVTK"}, "[4]": {"biological_target": "PIP5K1C (Homo sapiens, UniProt O60331)"}, "[5]": {"biological_target": "EPHA5 (Homo sapiens, UniProt P54756)"}, "[6]": {"biological_target": "ACVR1 (Homo sapiens, UniProt Q04771)"}, "[7]": {"biological_target": "T3, YSK1 (Homo sapiens, UniProt O00506)", "T3 construct": "gene STK25"}, "[8]": {"biological_target": "TNIK (Homo sapiens, UniProt Q9UKE5)"}, "[9]": {"biological_target": "BMX (Homo sapiens, UniProt P51813)", "sequence (P51813 whole entry)": "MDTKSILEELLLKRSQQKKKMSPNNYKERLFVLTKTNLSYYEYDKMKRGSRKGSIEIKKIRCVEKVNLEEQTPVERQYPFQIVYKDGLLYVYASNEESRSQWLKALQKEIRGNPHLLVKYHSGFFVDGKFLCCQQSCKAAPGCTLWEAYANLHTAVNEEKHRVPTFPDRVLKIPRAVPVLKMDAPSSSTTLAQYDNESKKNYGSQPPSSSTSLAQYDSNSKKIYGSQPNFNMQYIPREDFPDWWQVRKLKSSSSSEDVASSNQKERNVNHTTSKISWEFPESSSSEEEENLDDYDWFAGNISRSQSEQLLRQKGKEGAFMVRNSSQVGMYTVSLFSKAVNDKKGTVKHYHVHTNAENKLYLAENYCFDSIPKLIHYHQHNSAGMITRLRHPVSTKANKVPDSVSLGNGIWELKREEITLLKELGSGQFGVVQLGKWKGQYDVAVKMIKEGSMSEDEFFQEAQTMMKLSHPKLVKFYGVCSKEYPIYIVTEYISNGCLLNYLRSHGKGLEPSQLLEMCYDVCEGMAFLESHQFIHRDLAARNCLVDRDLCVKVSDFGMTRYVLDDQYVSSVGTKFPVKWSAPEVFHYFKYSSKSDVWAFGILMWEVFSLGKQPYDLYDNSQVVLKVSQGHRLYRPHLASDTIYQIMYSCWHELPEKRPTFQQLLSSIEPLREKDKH"}, "[10]": {"biological_target": "FGFR3(G697C) (Homo sapiens, UniProt P22607, G697C)"}, "[11]": {"biological_target": "MAK (Homo sapiens, UniProt P20794)", "sequence (P20794 whole entry)": "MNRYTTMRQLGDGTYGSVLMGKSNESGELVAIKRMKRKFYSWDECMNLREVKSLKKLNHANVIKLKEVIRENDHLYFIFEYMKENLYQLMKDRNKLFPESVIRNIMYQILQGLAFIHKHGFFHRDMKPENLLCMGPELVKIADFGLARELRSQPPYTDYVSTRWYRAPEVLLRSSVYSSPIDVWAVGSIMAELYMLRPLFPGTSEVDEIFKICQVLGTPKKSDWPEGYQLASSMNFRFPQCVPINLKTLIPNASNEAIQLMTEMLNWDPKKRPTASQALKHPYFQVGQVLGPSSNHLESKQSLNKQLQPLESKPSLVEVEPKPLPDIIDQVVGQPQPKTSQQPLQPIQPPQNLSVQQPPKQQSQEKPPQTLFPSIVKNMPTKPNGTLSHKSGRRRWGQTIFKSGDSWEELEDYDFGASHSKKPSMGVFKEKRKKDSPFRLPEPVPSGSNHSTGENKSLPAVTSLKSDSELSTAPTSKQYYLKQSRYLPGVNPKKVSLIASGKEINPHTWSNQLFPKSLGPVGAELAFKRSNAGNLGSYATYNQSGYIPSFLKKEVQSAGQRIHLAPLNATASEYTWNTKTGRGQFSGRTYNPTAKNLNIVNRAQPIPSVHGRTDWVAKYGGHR"}, "[12]": {"biological_target": "EPHA2 (Homo sapiens, UniProt P29317)"}, "[13]": {"biological_target": "SRPK2 (Homo sapiens, UniProt P78362)", "sequence (P78362 whole entry)": "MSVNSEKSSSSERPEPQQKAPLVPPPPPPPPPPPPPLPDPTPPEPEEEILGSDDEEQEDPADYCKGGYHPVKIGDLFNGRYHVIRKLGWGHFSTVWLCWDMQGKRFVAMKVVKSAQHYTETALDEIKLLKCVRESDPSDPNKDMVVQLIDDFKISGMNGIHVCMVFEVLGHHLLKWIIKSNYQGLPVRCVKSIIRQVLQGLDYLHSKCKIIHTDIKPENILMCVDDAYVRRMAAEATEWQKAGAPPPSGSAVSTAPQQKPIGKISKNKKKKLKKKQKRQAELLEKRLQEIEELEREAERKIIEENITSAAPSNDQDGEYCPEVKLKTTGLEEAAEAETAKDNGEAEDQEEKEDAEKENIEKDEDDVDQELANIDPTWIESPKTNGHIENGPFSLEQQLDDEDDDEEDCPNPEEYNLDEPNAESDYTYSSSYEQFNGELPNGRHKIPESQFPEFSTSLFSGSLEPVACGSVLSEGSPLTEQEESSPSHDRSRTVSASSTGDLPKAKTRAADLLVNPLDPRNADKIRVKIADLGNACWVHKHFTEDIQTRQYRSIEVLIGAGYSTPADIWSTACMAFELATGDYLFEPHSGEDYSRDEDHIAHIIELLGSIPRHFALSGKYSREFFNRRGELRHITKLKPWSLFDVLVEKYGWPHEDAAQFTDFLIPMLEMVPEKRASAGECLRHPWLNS"}, "[14]": {"biological_target": "T4, RSK4(Kin.Dom.2-C-terminal) (Homo sapiens, UniProt Q9UK32)", "T4 construct": "gene RPS6KA6; Kin.Dom.2-C-terminal"}, "[15]": {"biological_target": "BRSK2 (Homo sapiens, UniProt Q8IWQ3)"}, "[16]": {"biological_target": "SRMS (Homo sapiens, UniProt Q9H3Y6)"}, "[17]": {"biological_target": "SBK1 (Homo sapiens, UniProt Q52WX2)"}, "[18]": {"biological_target": "T5, MEK2 (Homo sapiens, UniProt P36507)", "T5 construct": "gene MAP2K2"}, "[19]": {"biological_target": "PIK3CA(Q546K) (Homo sapiens, UniProt P42336, Q546K)", "sequence (P42336 whole entry Q546K)": "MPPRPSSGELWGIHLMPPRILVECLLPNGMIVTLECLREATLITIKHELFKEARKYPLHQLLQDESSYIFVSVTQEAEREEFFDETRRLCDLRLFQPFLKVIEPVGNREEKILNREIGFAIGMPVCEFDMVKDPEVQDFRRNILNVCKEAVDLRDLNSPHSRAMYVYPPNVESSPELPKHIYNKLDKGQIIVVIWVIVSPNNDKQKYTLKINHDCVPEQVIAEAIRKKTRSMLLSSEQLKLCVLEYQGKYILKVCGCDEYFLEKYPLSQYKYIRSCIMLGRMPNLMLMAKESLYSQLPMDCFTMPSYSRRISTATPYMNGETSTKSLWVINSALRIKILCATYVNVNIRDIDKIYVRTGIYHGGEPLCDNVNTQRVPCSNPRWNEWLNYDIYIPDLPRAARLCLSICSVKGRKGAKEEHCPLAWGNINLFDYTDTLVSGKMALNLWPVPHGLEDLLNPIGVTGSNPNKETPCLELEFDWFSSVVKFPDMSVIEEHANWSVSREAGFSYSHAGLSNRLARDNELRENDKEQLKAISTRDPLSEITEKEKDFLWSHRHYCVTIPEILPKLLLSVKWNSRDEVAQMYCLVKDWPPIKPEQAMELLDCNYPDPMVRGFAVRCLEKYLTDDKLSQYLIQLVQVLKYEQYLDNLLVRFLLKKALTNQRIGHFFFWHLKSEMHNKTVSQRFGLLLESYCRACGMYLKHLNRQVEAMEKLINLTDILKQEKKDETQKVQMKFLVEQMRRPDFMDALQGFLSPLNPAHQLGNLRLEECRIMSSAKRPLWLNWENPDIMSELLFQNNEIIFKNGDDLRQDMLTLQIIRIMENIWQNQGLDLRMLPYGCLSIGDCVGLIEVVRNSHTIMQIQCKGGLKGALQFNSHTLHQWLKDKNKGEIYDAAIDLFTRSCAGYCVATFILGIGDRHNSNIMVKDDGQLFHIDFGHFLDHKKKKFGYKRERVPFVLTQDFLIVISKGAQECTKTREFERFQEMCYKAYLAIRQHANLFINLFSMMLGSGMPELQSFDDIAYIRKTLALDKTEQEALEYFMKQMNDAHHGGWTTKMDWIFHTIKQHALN"}, "[20]": {"biological_target": "AKT3 (Homo sapiens, UniProt Q9Y243)"}, "[21]": {"biological_target": "CSF1R-autoinhibited (Homo sapiens, UniProt P07333)", "sequence (P07333 whole entry)": "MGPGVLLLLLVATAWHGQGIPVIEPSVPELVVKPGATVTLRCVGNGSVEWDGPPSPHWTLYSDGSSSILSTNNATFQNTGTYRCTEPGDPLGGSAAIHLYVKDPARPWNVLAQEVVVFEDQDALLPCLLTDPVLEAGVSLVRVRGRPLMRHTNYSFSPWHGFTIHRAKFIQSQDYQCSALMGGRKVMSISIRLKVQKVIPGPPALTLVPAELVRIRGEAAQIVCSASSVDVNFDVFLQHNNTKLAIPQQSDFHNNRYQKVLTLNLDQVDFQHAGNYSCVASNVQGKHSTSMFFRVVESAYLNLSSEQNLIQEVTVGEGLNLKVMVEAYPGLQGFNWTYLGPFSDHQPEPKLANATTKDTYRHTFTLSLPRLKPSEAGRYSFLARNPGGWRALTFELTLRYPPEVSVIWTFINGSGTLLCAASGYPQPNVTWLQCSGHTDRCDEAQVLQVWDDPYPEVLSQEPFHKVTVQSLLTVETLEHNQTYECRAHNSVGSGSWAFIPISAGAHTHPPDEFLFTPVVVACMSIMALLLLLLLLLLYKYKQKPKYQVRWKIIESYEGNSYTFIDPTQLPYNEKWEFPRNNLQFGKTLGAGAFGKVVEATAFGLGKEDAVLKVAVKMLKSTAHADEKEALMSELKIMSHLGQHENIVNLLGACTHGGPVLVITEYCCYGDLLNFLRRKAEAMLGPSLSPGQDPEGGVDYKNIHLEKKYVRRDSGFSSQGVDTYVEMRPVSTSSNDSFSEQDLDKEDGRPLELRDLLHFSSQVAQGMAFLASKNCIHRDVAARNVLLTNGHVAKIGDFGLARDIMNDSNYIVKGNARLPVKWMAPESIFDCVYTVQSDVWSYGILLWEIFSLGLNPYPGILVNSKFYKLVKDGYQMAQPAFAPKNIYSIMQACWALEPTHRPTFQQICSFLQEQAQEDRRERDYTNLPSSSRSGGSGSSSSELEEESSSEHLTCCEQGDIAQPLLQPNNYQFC"}, "[22]": {"biological_target": "CAMKK2 (Homo sapiens, UniProt Q96RR4)", "sequence (Q96RR4 whole entry)": "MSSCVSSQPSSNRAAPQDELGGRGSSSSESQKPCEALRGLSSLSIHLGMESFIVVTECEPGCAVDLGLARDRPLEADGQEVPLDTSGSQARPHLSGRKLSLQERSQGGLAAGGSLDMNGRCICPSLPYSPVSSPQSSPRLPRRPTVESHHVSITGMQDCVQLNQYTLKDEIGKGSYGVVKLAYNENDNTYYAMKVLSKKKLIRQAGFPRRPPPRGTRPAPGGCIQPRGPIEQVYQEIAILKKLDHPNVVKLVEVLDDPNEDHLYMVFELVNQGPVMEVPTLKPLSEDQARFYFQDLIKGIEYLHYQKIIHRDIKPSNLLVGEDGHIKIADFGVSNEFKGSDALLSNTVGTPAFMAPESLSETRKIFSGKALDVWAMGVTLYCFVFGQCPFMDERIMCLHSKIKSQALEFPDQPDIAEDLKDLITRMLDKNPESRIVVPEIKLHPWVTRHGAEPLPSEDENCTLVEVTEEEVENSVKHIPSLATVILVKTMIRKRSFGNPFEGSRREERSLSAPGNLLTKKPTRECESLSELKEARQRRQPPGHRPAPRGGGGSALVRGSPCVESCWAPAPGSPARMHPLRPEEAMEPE"}, "[23]": {"biological_target": "EGFR(G719S) (Homo sapiens, UniProt P00533, G719S)"}, "[24]": {"biological_target": "TESK1 (Homo sapiens, UniProt Q15569)"}, "[25]": {"biological_target": "T6, PCTK2 (Homo sapiens, UniProt Q00537)", "T6 construct": "gene CDK17"}}}
{"compound": "Cc1cnc2nc1Nc1cccc(c1)COCc1cc(ccc1OCCN1CCCC1)N2", "note": "[Compound 1]", "values": [{"measurement": "remaining binding at 0.1 µM", "setting": "[1]", "result": 85, "unit": "%"}, {"measurement": "remaining binding at 0.1 µM", "setting": "[2]", "result": 32, "unit": "%"}, {"measurement": "remaining binding at 0.1 µM", "setting": "[3]", "result": 84, "unit": "%"}, {"measurement": "remaining binding at 0.1 µM", "setting": "[4]", "result": 66, "unit": "%"}, {"measurement": "remaining binding at 0.1 µM", "setting": "[5]", "result": 100, "unit": "%"}, {"measurement": "remaining binding at 0.1 µM", "setting": "[6]", "result": 92, "unit": "%"}, {"measurement": "remaining binding at 0.1 µM", "setting": "[7]", "result": 91, "unit": "%"}, {"measurement": "remaining binding at 0.1 µM", "setting": "[8]", "result": 80, "unit": "%"}, {"measurement": "remaining binding at 0.1 µM", "setting": "[9]", "result": 93, "unit": "%"}, {"measurement": "remaining binding at 0.1 µM", "setting": "[10]", "result": 94, "unit": "%"}, {"measurement": "remaining binding at 0.1 µM", "setting": "[11]", "result": 100, "unit": "%"}, {"measurement": "remaining binding at 0.1 µM", "setting": "[12]", "result": 82, "unit": "%"}, {"measurement": "remaining binding at 0.1 µM", "setting": "[13]", "result": 100, "unit": "%"}, {"measurement": "remaining binding at 0.1 µM", "setting": "[14]", "result": 96, "unit": "%"}, {"measurement": "remaining binding at 0.1 µM", "setting": "[15]", "result": 94, "unit": "%"}, {"measurement": "remaining binding at 0.1 µM", "setting": "[16]", "result": 75, "unit": "%"}, {"measurement": "remaining binding at 0.1 µM", "setting": "[17]", "result": 57, "unit": "%"}, {"measurement": "remaining binding at 0.1 µM", "setting": "[18]", "result": 72, "unit": "%"}, {"measurement": "remaining binding at 0.1 µM", "setting": "[19]", "result": 70, "unit": "%"}, {"measurement": "remaining binding at 0.1 µM", "setting": "[20]", "result": 100, "unit": "%"}, {"measurement": "remaining binding at 0.1 µM", "setting": "[21]", "result": 54, "unit": "%"}, {"measurement": "remaining binding at 0.1 µM", "setting": "[22]", "result": 96, "unit": "%"}, {"measurement": "remaining binding at 0.1 µM", "setting": "[23]", "result": 91, "unit": "%"}, {"measurement": "remaining binding at 0.1 µM", "setting": "[24]", "result": 85, "unit": "%"}, {"measurement": "remaining binding at 0.1 µM", "setting": "[25]", "result": 98, "unit": "%"}]}
